Laboratory results taken from patent publication US12649755B2, “Plasmin inhibitor, preparation method therefor and application thereof” (SCINNOHUB PHARMACEUTICAL CO., LTD, priority 2020, dated 2026).
Like-named read-outs stand apart in the source and are kept apart here.

Tests used:
[1] = Rat PK assay, intravenous administration; format: in vivo; details: male, Sprague-Dawley, plasma, SD rats, 1 mg/kg single dose
Protocol: The pharmacokinetic profile of the compounds of the invention in rats was studied by measuring the plasma drug concentration after intravenous administration.
Male Sprague-Dawley rats of SPF grade, 3 rats each group, were obtained from: Shanghai Sippe-Bk Lab Animal Co., Ltd.
The compound was weighed and dissolved in normal saline to prepare a 0.2 mg/mL solution for intravenous administration.
The day before the experiment, the rats were fasted overnight and fed 4 hours after administration.
On the day of the experiment, the rats were administered according to the scheme in the table below. At each time point after administration, approximately 200 μL of blood was collected from the jugular vein and placed in heparin sodium anticoagulation tubes. Blood samples were placed on ice after collection, and the plasma was separated by centrifugation within 1 hour (centrifugation conditions: 6800 g, 6 minutes, 2-8° C.). The separated plasma was stored in a refrigerator at −80° C. for biological sample analysis.
The compound concentration in rat plasma was determined by the following method: • Instruments and equipment: LC-MS/MS-19 (TQ5500, AB SCIEX, USA). • Internal standard: warfarin. • Chromatographic column: ACQUITY UPLC BEH C18, model 1.7 um 2.1*50 mm, purchased from Shenzhen Novah Chemical Technology Co., Ltd.; • Flow rate: 0.60 ml/min. • Column temperature: 40° C. • Mobile phase A: 0.1% formic acid in water. • Mobile phase B: 0.1% formic acid in acetonitrile.
Take 30 μL of the plasma sample prepared from item “3”, add 300 μL MeOH containing 100 ng/ml of internal standard to precipitate protein. The mixture was vortexed for 1 minute and centrifuged at 18000 g for 7 minutes. The supernatant was transferred to a 96-well plate. Inject 4 μL of supernatant into LC-MS/MS for analysis.
The concentration of the compound in rat plasma was determined by the above-mentioned LC-MS/MS analysis method, and pharmacokinetic parameters were calculated by using Phoenix WinNonlin7.0 software according to blood concentration data of different time points.

[2] = tested on: plasma clots (human plasma, tPA-induced lysis); assay: Plasma clot lysis assay; format: biochemical; details: for IC50: human plasma, tPA, clot lysis time by absorbance at 405 nm, read-out: IC50 value for inhibition of plasma clot lysis
Excerpt: To determine the inhibitory effect of the compounds of the invention on the degradation of plasma clots.
3. […] The time corresponding to the median of the absorption value in the descending section-the time corresponding to the median of the absorption value in the ascending section is the plasma clot degradation time (Clot lysis time).
Taking the log value of the compound concentration as the X-axis, and the percentage inhibition rate as the Y-axis, and dose-response curves were fitted with the software GraphPad Prism 5 by using log (inhibitor) vs. Response-Variable slope to derive IC50 values of compounds inhibiting the degradation of plasma clots. Y=min+(max−min)/(1+10^((LogIC50−X)×Hillslope). Formula: […]

[3] = tested on: human whole blood under hyperfibrinolytic state induced by rtPA; assay: Human whole blood thromboelastography (TEG) assay; format: biochemical; details: for CLT doubling: clot lysis time at the doubling concentration
Protocol: The antifibrinolytic effect of the compounds of the invention in the human whole blood under hyperfibrinolytic state induced by rtPA (recombinant tissue […]) was determined using the Thromboelastogram (TEG).
• Source of human blood: All human blood used in the experiments was provided by healthy volunteers. 3. Experimental Procedure • (1) Preparation of test substance solution: Accurately weigh the test substance, and use normal saline to prepare the test substance to the following concentrations (100×test concentration): • Tranexamic acid (μM): 3000, 1000, 300, 100, 30, 10, 0; • Example 6 (μM): 1000, 300, 100, 30, 10, 3, 0. • (2) Preparation of rt-PA (alteplase for injection): the active dry powder of rtPA was formulated to 25 μg/mL using water for injection in the rtPA package. • (3) Reaction system:
Mix 392 μL of sodium citrate anticoagulated whole blood with 4 μL rtPA and 4 μL test substance, reacted at room temperature, and TEG curve was detected for 2 hours to obtain the time parameter of CLT (clot lysis time). • (4) Result calculations
Taking the log value of the compound concentration as the X-axis and the CLT value as the Y-axis, and dose-response curves were fitted using log (inhibitor) vs. Response-Variable slope (GraphPad Prism 8 software).
The concentration of compound corresponding to doubling the CLT time was calculated.

[4] = tested on: fibrinolysis; details: relative to EACA; cited from earlier work
[5] = relative inhibition of plasma clot lysis vs tranexamic acid in vitro, plasma clot lysis

Cl.O=P(O)(O)c1ccc2c(n1)CCNC2 [Example 1, (5,6,7,8-tetrahydro-1,6-naphthyridin-2-yl)phosphonic Acid Hydrochloride]
AUC [1]: 14000 ng·h/mL
Cmax [1]: 10200 ng/mL
clearance [1]: 1.14 mL/min/kg
half-life [1]: 1.96 h
IC50 [2]: 900 nM
IC50 ratio (IC50 Examples/IC50 Tranexamic acid) [2, 5]: 0.19

Cl.O=P(O)(O)c1nc2c(cc1F)CNCC2 [Example 2, (3-fluoro-5,6,7,8-tetrahydro-1,6-naphthyridin-2-yl)phosphonic Acid Hydrochloride]
AUC [1]: 30100 ng·h/mL
Cmax [1]: 10100 ng/mL
clearance [1]: 0.555 mL/min/kg
half-life [1]: 4.15 h
IC50 ratio (IC50 Examples/IC50 Tranexamic acid) [2, 5]: 0.11

CCP(=O)(O)c1ccc2c(n1)CCNC2.Cl [Example 3, Ethyl (5,6,7,8-tetrahydro-1,6-naphthyridin-2-yl)-phosphinic Acid Hydrochloride]
IC50 ratio (IC50 Examples/IC50 Tranexamic acid) [2]: 0.86

Cl.O=P(O)(CCc1ccccc1)c1ccc2c(n1)CCNC2 [Example 4, Phenylethyl (5,6,7,8-tetrahydro-1,6-naphthyridin-2-yl) Phosphinic Acid Hydrochloride]
IC50 ratio (IC50 Examples/IC50 Tranexamic acid) [2, 5]: 0.36

Cl.O=P(O)(O)c1ccc2c(n1)C(F)(F)CNC2 [Example 5, (8,8-difluoro-5,6,7,8-tetrahydro-1,6-naphthyridin-2-yl) Phosphonic Acid Hydrochloride]
IC50 ratio (IC50 Examples/IC50 Tranexamic acid) [2, 5]: 1.3

O=P(O)(O)c1ccc2c(n1)CCNC2 [Example 6, (5,6,7,8-tetrahydro-1,6-naphthyridin-2-yl) Phosphonic Acid Monohydrate]
Compound concentration for doubling CLT [3]: 0.12 µM
CLT doubling [3]: 37.06 min
IC50 ratio (IC50 Examples/IC50 Tranexamic acid) [2, 5]: 0.09

Cl.O=P(O)(O)c1ccc2c(n1)C(N1CCOCC1)CNC2 (centres unmarked) [Example 7, (8-morpholino-5,6,7,8-tetrahydro-1,6-naphthyridin-2-yl) Phosphonic Acid Hydrochloride]
IC50 ratio (IC50 Examples/IC50 Tranexamic acid) [2, 5]: 0.3

Cl.O=P(O)(O)c1ccc2c(n1)C(O)CNC2 (centres unmarked) [Example 8, (8-hydroxy-5,6,7,8-tetrahydro-1,6-naphthyridin-2-yl) Phosphonic Acid Hydrochloride]
AUC [1]: 6660 ng·h/mL
Cmax [1]: 5990 ng/mL
clearance [1]: 2.44 mL/min/kg
half-life [1]: 1.74 h
IC50 ratio (IC50 Examples/IC50 Tranexamic acid) [2, 5]: 0.2

Cl.O=P(O)(O)c1ccc2c(n1)C(OCCO)CNC2 (centres unmarked) [Example 9, (8-(2-hydroxyethoxy)-5,6,7,8-tetrahydro-1,6-naphthyridin-2-yl) Phosphonic Acid Hydrochloride]
IC50 ratio (IC50 Examples/IC50 Tranexamic acid) [2, 5]: 0.25

CC(C)CC1Cc2nc(P(=O)(O)O)ccc2CN1.Cl (centres unmarked) [Example 11, (7-isobutyl-5,6,7,8-tetrahydro-1,6-naphthyridin-2-yl) Phosphonic Acid Hydrochloride]
IC50 ratio (IC50 Examples/IC50 Tranexamic acid) [2, 5]: 0.08

CCCC1Cc2nc(P(=O)(O)O)ccc2CN1.Cl (centres unmarked) [Example 12, (7-propyl-5,6,7,8-tetrahydro-1,6-naphthyridin-2-yl) Phosphonic Acid Hydrochloride]
IC50 ratio (IC50 Examples/IC50 Tranexamic acid) [2, 5]: 0.2

Cl.O=P(O)(O)c1ccc2c(n1)CC(CCc1ccccc1)NC2 (centres unmarked) [Example 13, (7-phenylethyl-5,6,7,8-tetrahydro-1,6-naphthyridin-2-yl) Phosphonic Acid Hydrochloride]
IC50 ratio (IC50 Examples/IC50 Tranexamic acid) [2, 5]: 0.2

CCOP(=O)(O)c1ccc2c(n1)CCNC2.Cl [Example 15]
AUC [1]: 2830 ng·h/mL
Cmax [1]: 4890 ng/mL
clearance [1]: 5.85 mL/min/kg
half-life [1]: 0.77 h
IC50 ratio (IC50 Examples/IC50 Tranexamic acid) [2, 5]: 0.29

COc1ccc(CCC2Cc3nc(P(=O)(O)O)ccc3CN2)cc1.Cl (centres unmarked) [Example 16]
IC50 ratio (IC50 Examples/IC50 Tranexamic acid) [2, 5]: 0.07

Cl.O=P(O)(c1ccccc1)c1ccc2c(n1)CCNC2 [Example 17]
AUC [1]: 2820 ng·h/mL
Cmax [1]: 4090 ng/mL
clearance [1]: 5.83 mL/min/kg
half-life [1]: 1.53 h
IC50 ratio (IC50 Examples/IC50 Tranexamic acid) [2, 5]: 0.2

CC(=O)OCOP(=O)(O)c1ccc2c(n1)CCNC2 [Example 18]
IC50 ratio (IC50 Examples/IC50 Tranexamic acid) [2, 5]: 0.23

CC(C)C(=O)OCOP(=O)(O)c1ccc2c(n1)CCNC2 [Example 19]
IC50 ratio (IC50 Examples/IC50 Tranexamic acid) [2, 5]: 0.26

Cl.O=P(O)(O)c1ccc2c(n1)C(N1CCSCC1)CNC2 (centres unmarked) [Example 20]
IC50 ratio (IC50 Examples/IC50 Tranexamic acid) [2, 5]: 0.21

Cl.O=P(O)(O)c1ccc2c(n1)C(N1CCS(=O)(=O)CC1)CNC2 (centres unmarked) [Example 21]
IC50 ratio (IC50 Examples/IC50 Tranexamic acid) [2, 5]: 0.25

Cl.O=P(O)(O)c1ccc2c(n1)CC(COCCCO)NC2 (centres unmarked) [Example 22]
AUC [1]: 5530 ng·h/mL
Cmax [1]: 6790 ng/mL
clearance [1]: 2.98 mL/min/kg
half-life [1]: 3.58 h
IC50 ratio (IC50 Examples/IC50 Tranexamic acid) [2, 5]: 0.14

CC(C)(C)CC1Cc2nc(P(=O)(O)O)ccc2CN1.Cl (centres unmarked) [Example 23]
IC50 ratio (IC50 Examples/IC50 Tranexamic acid) [2, 5]: 0.19

CC(C)C1Cc2nc(P(=O)(O)O)ccc2CN1.Cl (centres unmarked) [Example 24]
IC50 ratio (IC50 Examples/IC50 Tranexamic acid) [2, 5]: 0.14

Cl.O=P(O)(O)c1ccc2c(n1)CC(CCCc1ccccc1)NC2 (centres unmarked) [Example 25]
IC50 ratio (IC50 Examples/IC50 Tranexamic acid) [2, 5]: 0.21

CC(C)CCC1Cc2nc(P(=O)(O)O)ccc2CN1.Cl (centres unmarked) [Example 26]
IC50 ratio (IC50 Examples/IC50 Tranexamic acid) [2, 5]: 0.09

CC(C)(C)CCC1Cc2nc(P(=O)(O)O)ccc2CN1.Cl (centres unmarked) [Example 27]
IC50 ratio (IC50 Examples/IC50 Tranexamic acid) [2, 5]: 0.1

Cl.O=P(O)(O)c1ccc2c(n1)CC(CC1CCCCC1)NC2 (centres unmarked) [Example 28]
IC50 ratio (IC50 Examples/IC50 Tranexamic acid) [2, 5]: 0.07

Cl.O=P(O)(O)c1ccc2c(n1)CC(CCC1CCCCC1)NC2 (centres unmarked) [Example 29]
IC50 ratio (IC50 Examples/IC50 Tranexamic acid) [2, 5]: 0.09

Cl.O=P(O)(O)c1ccc2c(n1)CC(Cc1ccccc1)NC2 (centres unmarked) [Example 30]
IC50 ratio (IC50 Examples/IC50 Tranexamic acid) [2, 5]: 0.75

CC(C)CC1(CC(C)C)Cc2nc(P(=O)(O)O)ccc2CN1.Cl [Example 31]
IC50 ratio (IC50 Examples/IC50 Tranexamic acid) [2, 5]: 0.1

Cl.O=P(O)(O)c1ccc2c(n1)CC1(CCC1)NC2 [Example 32]
IC50 ratio (IC50 Examples/IC50 Tranexamic acid) [2, 5]: 0.7

Cl.O=P(O)(O)c1ccc2c(n1)CC1(CCCC1)NC2 [Example 33]
IC50 ratio (IC50 Examples/IC50 Tranexamic acid) [2, 5]: 0.22

Cl.O=P(O)(O)c1ccc2c(n1)CC1(CCCCC1)NC2 [Example 34]
IC50 ratio (IC50 Examples/IC50 Tranexamic acid) [2, 5]: 0.29

CCOC(=O)OCOP(=O)(O)c1ccc2c(n1)CCNC2 [Example 35]
IC50 ratio (IC50 Examples/IC50 Tranexamic acid) [2, 5]: 0.18

NC[C@H]1CC[C@H](C(=O)O)CC1 [Tranexamic acid, trans-4-aminomethyl-cyclohexane-carboxylic acid, reference compound]
Compound concentration for doubling CLT [3]: 1.78 µM
CLT doubling [3]: 34.66 min
anti-fibrinolytic activity, times that of EACA [4]: about 10 times
AUC [1]: 2820 ng·h/mL
Cmax [1]: 4410 ng/mL
clearance [1]: 5.78 mL/min/kg
half-life [1]: 1.28 h
IC50 [2]: 4750 nM
